Measured values published in the supplement of paper PMC10307832.

Key:
Assay in all cases: relative viability (nuclei count vs DMSO), 5 days (fraction); higher = more cells survive
NCI-H1734 = tested on: NCI-H1734
In short: (§1)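 One day after seeding in 1536-well plates, lung cancer cell lines were dosed by pin tool. Dosing was either single-drug or a fixed anchor-drug dose plus five library-drug doses (not always all listed) in √10 steps. After 5 days, nuclei were stained in one fix-and-stain step and counted on 4× images, and relative viability is the nuclei count of treated wells over that of vehicle wells, given as the median of duplicate plates.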

NCI-H322M = tested on: NCI-H322M
In short: as §1

NCI-H647 = tested on: NCI-H647
In short: as §1

HOP-62 = tested on: HOP-62
In short: as §1

NCI-H441 = tested on: NCI-H441
In short: as §1

NCI-H596 = tested on: NCI-H596
In short: as §1

NCI-H2009 = tested on: NCI-H2009
In short: as §1

NCI-H1563 = tested on: NCI-H1563
In short: as §1

LXF-289 = tested on: LXF-289
In short: as §1

201T = tested on: 201T
In short: as §1

NCI-H3122 = tested on: NCI-H3122
In short: as §1

NCI-H2126 = tested on: NCI-H2126
In short: as §1

ABC-1 = tested on: ABC-1
In short: as §1

H3255 = tested on: H3255
In short: as §1

LK-2 = tested on: LK-2
In short: as §1

PC-14 = tested on: PC-14
In short: as §1

NCI-H1651 = tested on: NCI-H1651
In short: as §1

NCI-H1755 = tested on: NCI-H1755
In short: as §1

CAL-12T = tested on: CAL-12T
In short: as §1

NCI-H2087 = tested on: NCI-H2087
In short: as §1

EMC-BAC-2 = tested on: EMC-BAC-2
In short: as §1

ChaGo-K-1 = tested on: ChaGo-K-1
In short: as §1

## CCCCCCCCCCCC1=C(O)C(=O)C=C(O)C1=O [Embelin] + C[C@]1(O)C[C@@H](c2nc(-c3ccc4ccc(-c5ccccc5)nc4c3)c3c(N)nccn32)C1 [Linsitinib] (partner 1 µM)
NCI-H1734; first compound 0.08 µM
  relative viability: 0.832
NCI-H1734; first compound 0.8 µM
  relative viability: 1.05
NCI-H1734; first compound 2.53 µM
  relative viability: 0.927
NCI-H1734; first compound 8 µM
  relative viability: 0.876
NCI-H322M; first compound 0.08 µM
  relative viability: 0.936
NCI-H322M; first compound 0.8 µM
  relative viability: 1.08
NCI-H322M; first compound 2.53 µM
  relative viability: 1.1
NCI-H322M; first compound 8 µM
  relative viability: 0.856
NCI-H647; first compound 0.08 µM
  relative viability: 1.31
NCI-H647; first compound 0.8 µM
  relative viability: 1.27
NCI-H647; first compound 2.53 µM
  relative viability: 1.32
NCI-H647; first compound 8 µM
  relative viability: 1.28
HOP-62; first compound 0.08 µM
  relative viability: 0.937
HOP-62; first compound 0.8 µM
  relative viability: 1.05
HOP-62; first compound 2.53 µM
  relative viability: 1.06
HOP-62; first compound 8 µM
  relative viability: 0.96
NCI-H441; first compound 0.08 µM
  relative viability: 0.598
NCI-H441; first compound 0.8 µM
  relative viability: 0.559
NCI-H441; first compound 2.53 µM
  relative viability: 0.539
NCI-H441; first compound 8 µM
  relative viability: 0.622
NCI-H596; first compound 0.08 µM
  relative viability: 1.11
NCI-H596; first compound 0.8 µM
  relative viability: 1.14
NCI-H596; first compound 2.53 µM
  relative viability: 1.25
NCI-H596; first compound 8 µM
  relative viability: 1.05
NCI-H2009; first compound 0.08 µM
  relative viability: 1.24
NCI-H2009; first compound 0.8 µM
  relative viability: 1.3
NCI-H2009; first compound 2.53 µM
  relative viability: 1.21
NCI-H2009; first compound 8 µM
  relative viability: 1.12
NCI-H1563; first compound 0.08 µM
  relative viability: 1.14
NCI-H1563; first compound 0.8 µM
  relative viability: 1.18
NCI-H1563; first compound 2.53 µM
  relative viability: 1.16
NCI-H1563; first compound 8 µM
  relative viability: 1.16
LXF-289; first compound 0.08 µM
  relative viability: 0.991
LXF-289; first compound 0.8 µM
  relative viability: 0.957
LXF-289; first compound 2.53 µM
  relative viability: 1
LXF-289; first compound 8 µM
  relative viability: 1.01
201T; first compound 0.08 µM
  relative viability: 1.06
201T; first compound 0.8 µM
  relative viability: 1.1
201T; first compound 2.53 µM
  relative viability: 1.09
201T; first compound 8 µM
  relative viability: 1.01
NCI-H3122; first compound 0.08 µM
  relative viability: 1.01
NCI-H3122; first compound 0.8 µM
  relative viability: 0.946
NCI-H3122; first compound 2.53 µM
  relative viability: 1.01
NCI-H3122; first compound 8 µM
  relative viability: 1.12
NCI-H2126; first compound 0.08 µM
  relative viability: 0.714
NCI-H2126; first compound 0.8 µM
  relative viability: 0.787
NCI-H2126; first compound 2.53 µM
  relative viability: 0.746
NCI-H2126; first compound 8 µM
  relative viability: 0.676
ABC-1; first compound 0.08 µM
  relative viability: 0.863
ABC-1; first compound 0.8 µM
  relative viability: 0.786
ABC-1; first compound 2.53 µM
  relative viability: 0.772
ABC-1; first compound 8 µM
  relative viability: 0.825
H3255; first compound 0.08 µM
  relative viability: 1
H3255; first compound 0.8 µM
  relative viability: 1.23
H3255; first compound 2.53 µM
  relative viability: 0.931
H3255; first compound 8 µM
  relative viability: 0.922
LK-2; first compound 0.08 µM
  relative viability: 0.685
LK-2; first compound 0.8 µM
  relative viability: 0.525
LK-2; first compound 2.53 µM
  relative viability: 0.805
LK-2; first compound 8 µM
  relative viability: 0.547
PC-14; first compound 0.08 µM
  relative viability: 0.921
PC-14; first compound 0.8 µM
  relative viability: 1
PC-14; first compound 2.53 µM
  relative viability: 1.06
PC-14; first compound 8 µM
  relative viability: 0.972
NCI-H1651; first compound 0.08 µM
  relative viability: 0.955
NCI-H1651; first compound 0.8 µM
  relative viability: 1.1
NCI-H1651; first compound 2.53 µM
  relative viability: 1.04
NCI-H1651; first compound 8 µM
  relative viability: 0.878
NCI-H1755; first compound 0.08 µM
  relative viability: 1.03
NCI-H1755; first compound 0.8 µM
  relative viability: 1.06
NCI-H1755; first compound 2.53 µM
  relative viability: 1.07
NCI-H1755; first compound 8 µM
  relative viability: 0.98
CAL-12T; first compound 0.08 µM
  relative viability: 0.783
CAL-12T; first compound 0.8 µM
  relative viability: 0.915
CAL-12T; first compound 2.53 µM
  relative viability: 0.749
CAL-12T; first compound 8 µM
  relative viability: 0.831
NCI-H2087; first compound 0.08 µM
  relative viability: 0.998
NCI-H2087; first compound 0.8 µM
  relative viability: 0.97
NCI-H2087; first compound 2.53 µM
  relative viability: 1.01
NCI-H2087; first compound 8 µM
  relative viability: 0.916
EMC-BAC-2; first compound 0.08 µM
  relative viability: 0.845
EMC-BAC-2; first compound 0.8 µM
  relative viability: 0.862
EMC-BAC-2; first compound 2.53 µM
  relative viability: 0.844
EMC-BAC-2; first compound 8 µM
  relative viability: 0.842

## CCCCCCCCCCCC1=C(O)C(=O)C=C(O)C1=O [Embelin] + CC(C)C[C@H](NC(=O)[C@H](Cc1ccccc1)NC(=O)c1cnccn1)B(O)O [Bortezomib] (partner 0.002 µM)
NCI-H1734; first compound 0.08 µM
  relative viability: 0.882
NCI-H1734; first compound 0.8 µM
  relative viability: 1.35
NCI-H1734; first compound 2.53 µM
  relative viability: 1.14
NCI-H1734; first compound 8 µM
  relative viability: 0.944
NCI-H322M; first compound 0.08 µM
  relative viability: 1.21
NCI-H322M; first compound 0.8 µM
  relative viability: 1.34
NCI-H322M; first compound 2.53 µM
  relative viability: 1.44
NCI-H322M; first compound 8 µM
  relative viability: 1.29
NCI-H647; first compound 0.08 µM
  relative viability: 1.08
NCI-H647; first compound 0.8 µM
  relative viability: 1.28
NCI-H647; first compound 2.53 µM
  relative viability: 1.43
NCI-H647; first compound 8 µM
  relative viability: 0.929
HOP-62; first compound 0.08 µM
  relative viability: 0.924
HOP-62; first compound 0.8 µM
  relative viability: 0.846
HOP-62; first compound 2.53 µM
  relative viability: 1.15
HOP-62; first compound 8 µM
  relative viability: 0.727
ChaGo-K-1; first compound 0.08 µM
  relative viability: 0.988
ChaGo-K-1; first compound 0.8 µM
  relative viability: 1.37
ChaGo-K-1; first compound 2.53 µM
  relative viability: 0.946
ChaGo-K-1; first compound 8 µM
  relative viability: 0.793
NCI-H441; first compound 0.08 µM
  relative viability: 0.448
NCI-H441; first compound 2.53 µM
  relative viability: 0.251
NCI-H441; first compound 8 µM
  relative viability: 0.475
NCI-H596; first compound 0.08 µM
  relative viability: 0.955
NCI-H596; first compound 0.8 µM
  relative viability: 1.17
NCI-H596; first compound 2.53 µM
  relative viability: 1.3
NCI-H596; first compound 8 µM
  relative viability: 0.87
NCI-H2009; first compound 0.08 µM
  relative viability: 1.07
NCI-H2009; first compound 0.8 µM
  relative viability: 1.18
NCI-H2009; first compound 2.53 µM
  relative viability: 0.916
NCI-H2009; first compound 8 µM
  relative viability: 0.9
NCI-H1563; first compound 0.08 µM
  relative viability: 1.06
NCI-H1563; first compound 0.8 µM
  relative viability: 0.953
NCI-H1563; first compound 2.53 µM
  relative viability: 0.787
NCI-H1563; first compound 8 µM
  relative viability: 0.753
LXF-289; first compound 0.08 µM
  relative viability: 1.01
LXF-289; first compound 0.8 µM
  relative viability: 1
LXF-289; first compound 2.53 µM
  relative viability: 1
LXF-289; first compound 8 µM
  relative viability: 1.05
201T; first compound 0.08 µM
  relative viability: 1.06
201T; first compound 0.8 µM
  relative viability: 1.17
201T; first compound 2.53 µM
  relative viability: 1.09
201T; first compound 8 µM
  relative viability: 1.09
NCI-H3122; first compound 0.08 µM
  relative viability: 0.978
NCI-H3122; first compound 0.8 µM
  relative viability: 1.03
NCI-H3122; first compound 2.53 µM
  relative viability: 0.916
NCI-H3122; first compound 8 µM
  relative viability: 0.992
NCI-H2126; first compound 0.08 µM
  relative viability: 1.14
NCI-H2126; first compound 0.8 µM
  relative viability: 1.11
NCI-H2126; first compound 2.53 µM
  relative viability: 1.08
NCI-H2126; first compound 8 µM
  relative viability: 1.19
ABC-1; first compound 0.08 µM
  relative viability: 0.299
ABC-1; first compound 0.8 µM
  relative viability: 0.371
ABC-1; first compound 2.53 µM
  relative viability: 0.252
ABC-1; first compound 8 µM
  relative viability: 0.257
H3255; first compound 0.08 µM
  relative viability: 0.962
H3255; first compound 0.8 µM
  relative viability: 0.975
H3255; first compound 2.53 µM
  relative viability: 0.702
H3255; first compound 8 µM
  relative viability: 0.889
PC-14; first compound 0.08 µM
  relative viability: 0.858
PC-14; first compound 0.8 µM
  relative viability: 0.899
PC-14; first compound 2.53 µM
  relative viability: 0.84
PC-14; first compound 8 µM
  relative viability: 0.87
NCI-H1651; first compound 0.08 µM
  relative viability: 0.958
NCI-H1651; first compound 0.8 µM
  relative viability: 0.92
NCI-H1651; first compound 2.53 µM
  relative viability: 1.01
NCI-H1651; first compound 8 µM
  relative viability: 1.02
NCI-H1755; first compound 0.08 µM
  relative viability: 0.987
NCI-H1755; first compound 0.8 µM
  relative viability: 1.07
NCI-H1755; first compound 2.53 µM
  relative viability: 0.971
NCI-H1755; first compound 8 µM
  relative viability: 0.917
CAL-12T; first compound 0.08 µM
  relative viability: 0.996
CAL-12T; first compound 0.8 µM
  relative viability: 1.27
CAL-12T; first compound 8 µM
  relative viability: 1.04
NCI-H2087; first compound 0.08 µM
  relative viability: 0.83
NCI-H2087; first compound 0.8 µM
  relative viability: 0.807
NCI-H2087; first compound 2.53 µM
  relative viability: 0.735
NCI-H2087; first compound 8 µM
  relative viability: 0.935
EMC-BAC-2; first compound 0.08 µM
  relative viability: 1.04
EMC-BAC-2; first compound 0.8 µM
  relative viability: 1.18
EMC-BAC-2; first compound 2.53 µM
  relative viability: 1.21
EMC-BAC-2; first compound 8 µM
  relative viability: 1.09
